Read-outs that look alike come from different tables or passages of the source.
Columns and labels:
[1] = biological target: T1, α-chymotrypsin (Bos taurus, UniProt P00766); assay: SANS of α-chymotrypsin/azoTAB solutions (Guinier, PDDF, shape reconstruction); design: species or system bovine
T1 construct: α-Ch results from the removal of two dipeptides at positions 14-15 and 147-148 in chymotrypsinogen; purchased Sigma C-4129 (lot # 105K7670); host or cells: bovine pancreas
Procedure: Small-angle neutron scattering experiments were performed on the 30-m NG3 SANS instruments at NIST. (24) A neutron wavelength of λ=6 Å and a detector offset of 25 cm with two sample-detector distances of 1.33 and 7.0 m were utilized to achieve a Q range of 0.0048-0.46 Å^−1. The net intensities were corrected for the background and empty cell (pure D2O), accounting for the detector efficiency using the scattering from an isotropic scatterer (Plexiglas), and converted to an absolute differential cross section per unit sample volume (in units of cm^−1) using an attenuated empty beam. The data were then corrected for incoherent scattering by subtracting a constant background. The shape-reconstruction algorithm GA_STUCT (11) was used to generate solution conformations, similar to previous studies (10, 11). Beginning with an initial guess of randomly-distributed scattering centers, the program rearranges the position of the scattering centers to best fit the experimental scattering data.
The weight-average molecular weight (Mw) of each sample was calculated from the equation
where ρS and ρP are the scattering length densities of the solvent (6.36×10^10 cm^−2) and protein (3.23×10^10 cm^−2), respectively, c is the protein concentration (11.6 mg/mL at pH 3 and 11.4 mg/mL at pH 7), and υ is the protein specific volume (0.734 cm^3/g). (25) I(0)-values were determined from Guinier plots (25) using I(Q)=I(0)exp(−Q^2Rg^2/3), where Rg is the radius of gyration. Guinier plots, generally valid for QRg<1.3, can be influenced by solution structuring due to intermolecular interactions between charged proteins, which becomes increasingly important as Q decreases below 1.5/R (10) (or <0.05 Å^−1 using an α-Ch radius ˜30 Å). Thus, pair distance distribution functions were calculated from the SANS data using the program GNOM (26) according to the equation
where P(r) is related to the probability of two scattering centers (nuclei for SANS) being a distance r+dr apart, and Dmax is the maximum distance between scattering centers within the protein or protein oligomer. I(0)-values were then obtained from the PDDFs through I(0)=4π∫0^D^maxP(r)dr, which has the advantage of utilizing the entire Q-range to determine I(O), as opposed to just the low-Q values as in Guinier analysis (27).

[2] = biological target: T2, chymotrypsinogen-A (Bos taurus, UniProt P00766); assay: SAXS of chymotrypsinogen-A/azoTAB solutions; design: species or system bovine
T2 construct: Chymotrypsinogen is the zymogen of α-chymotrypsin; purchased Worthington LS005630; host or cells: bovine pancreas
Procedure: The small-angle X-ray scattering data were measured using the X21 beamline at the National Synchrotron Light Source at the Brookhaven National Laboratory. (28) The X-ray wavelength was set to 1.24 Å with a pair of Si(111) monochromator crystals. The sample-to-detector distance was calibrated to be 1.69 m using a silver behenate standard. To avoid radiation damage, solutions were continuously passed at a flow rate of 60 μL/min through a 1-mm glass capillary housed within an aluminum block containing Plexiglas observation windows. (28) The net intensities were corrected for the background and solvent scattering as well as sample transmission, and were put on an absolute scale by comparison with a calibration standard (10 mg/mL BSA (10)).

[3] = biological target: T1, α-chymotrypsin; assay: FT-IR secondary structure of α-Ch/azoTAB mixtures; design: species or system bovine; conditions: addition of trans azoTAB to pure α-Ch, and UV exposure of α-Ch/azoTAB
Procedure: Infrared spectra were measured with a Genesis II FT-IR spectrometer (Mattson Instruments). Solutions were loaded in a demountable liquid cell equipped with a circulating water jacket (T=20° C.) between a pair of CaF2 windows using a 50 μm Teflon spacer. A liquid light guide (Oriel, model no. 77557) was used to directly illuminate the sample with UV or visible light for 2 hours prior to and during data collection, as previously described (9). The sample chamber was continuously purged with dry air to eliminate the influence of water vapor. For each spectrum, a 500-scan interferogram was collected with a 2 cm^−1 resolution. The relatively sharp surfactant peaks at ˜1600 cm^−1 were removed by subtracting the spectra measured for a pure surfactant solution under otherwise identical conditions, resulting in corrected spectra that were flat in the region between 2000 and 1750 cm^−1. Fourier self-deconvolution (FSD) was applied to spectra to resolve the overlapping bands in the Amide I region using a band-narrowing factor k=2.0 and a full width at half height of 12.6 cm^−1. Second derivative spectra were obtained with the Savitsky-Golay function for a 3rd order polynomial, using a 13 data point window. […] Difference spectra obtained for pure α-chymotrypsin solutions without surfactant shown no significant absorbance changes (<1% throughout the amide I region).

[4] = biological target: T1, α-chymotrypsin; assay: Congo red staining, optical microscopy of α-Ch/azoTAB solution; design: species or system bovine; conditions: α-Ch/azoTAB solution aged for five days
Procedure: Optical microscopy was performed on an Olympus IX71 inverted fluorescence microscope equipped using a 50× lens (Olympus, model SLCPlanFl) and a U-N41027 CAL CRIM C58158 filter cube (Chroma, model 058158). Images were recorded with a Hamamatsu digital CCD camera (model C4742-95). Aliquots (5-10 μL) of the protein-surfactant solution were deposited onto glass slides and dyed with an equal volume of a 400 μM Congo red aqueous solution.

[5] = biological target: T1, α-chymotrypsin; assay: TEM of α-Ch/azoTAB solutions; design: species or system bovine; conditions: two weeks (fresh solution) or approx. one year (SANS solution, pH 3, 4.2 mM azoTAB)
Procedure: Transmission electron microscopy was performed on a Philips EM420 TEM operating at 80 kV. A drop of protein solution was placed on a carbon-coated grid for 10 seconds and then blotted with filter paper, followed by repeating this procedure with a second drop. The grid was then placed in a freshly made 1 wt % uranyl acetate solution for 30 s.

[6] = cited from earlier work

- Rg from second Guinier slope (monomer) ([1]; Q^2 ~0.01-0.03 Å^-2, α-Ch/azoTAB solutions, pH 3 and pH 7, visible and UV): 17.0-18.2 Å
- type of protein self-association ([1]; UV light (cis azoTAB)): monomer-dodecamer equilibrium
- Dmax of oligomer (PDDF) ([1]; UV light, dodecamer): ~160 Å
- most probable dimension (PDDF peak) ([1]; UV light, dodecamer): 40-50 Å
- effective oligomer size n^eff reached with increasing surfactant concentration ([1]; UV light, SANS and SAXS data): 12
- scaling exponent of Rg^n with oligomer Mw ([1]; hexamer or dodecamer, compared to monomer Rg): 0.42±0.03
- increase in Rg with the addition of azoTAB ([1]; monomer Rg, Table 1): 7%
- type of protein self-association ([1]; visible light (trans azoTAB)): monomer-hexamer equilibrium
- Dmax of oligomer (PDDF) ([1]; visible light, hexamer): ~120 Å
- Rg of chymotrypsinogen (Guinier) ([2]; 24 mM azoTAB, visible light, 10.0 mg/mL protein): 19.7 Å
- increase in I(0) relative to the monomer data ([2]; UV light, 19 mM and 24 mM azoTAB): 12 fold
- time for complete visible-light induced dissociation of UV-equilibrated samples ([2]; re-exposure to 434-nm visible light): several hours
- I(0) ([2]; visible light): 0.2 to 0.25 cm⁻¹
- FT-IR change on association [3]: increase in peaks at 1612 and 1685 cm^−1
- fibril diameter [5]: ca. 10 nm
SMILES: CCc1ccc(/N=N/c2ccc(OCC[N+](C)(C)C)cc2)cc1 [azoTAB, azobenzene-trimethylammonium bromide surfactant]
- Congo red staining result [4]: characteristic Congo red fluorescence as well as “apple green” birefringence
- isomer ratio ([6]; 350-nm UV light): 90/10
- trans isomer ([6]; in the dark, about 24 hours): ~100%
- isomer ratio ([6]; visible light, 434 nm): 75/25
- cis→trans isomerization kinetics ([6]; visible light): within minutes

Reference: patent US20090075318A1, “USING PHOTO-RESPONSIVE SURFACTANTS TO REVERSIBLY CONTROL PROTEIN AGGREGATION WITH LIGHT ILLUMINATION” (University of Southern California, priority 2007, published 2009)
